Data taken from ChEMBL document CHEMBL3044575, “Synthesis, anti-inflammatory activity, and QSAR study of some Schiff bases derived from 5-mercapto-3-(4-pyridyl)-4H-1,2,4-triazol-4-yl-thiosemicarbazide” (2013).

Experiments:
Assay type in all cases: functional
Rattus norvegicus [1] = assay: Anti-inflammatory activity in Albino Rattus norvegicus (rat) assessed as inhibition of carrageenan-induced paw edema at 20 mg/kg, po administered 1 hr prior to carrageenan challenge measured after 5 hr by mercury displacement technique
Rattus norvegicus [2] = assay: Anti-inflammatory activity in Albino Rattus norvegicus (rat) assessed as inhibition of carrageenan-induced paw edema at 20 mg/kg, po administered 1 hr prior to carrageenan challenge measured after 2 hr by mercury displacement technique
Rattus norvegicus [3] = assay: Anti-inflammatory activity in Albino Rattus norvegicus (rat) assessed as inhibition of carrageenan-induced paw edema at 20 mg/kg, po administered 1 hr prior to carrageenan challenge measured after 1 hr by mercury displacement technique
Rattus norvegicus [4] = assay: Anti-inflammatory activity in Albino Rattus norvegicus (rat) assessed as inhibition of carrageenan-induced paw edema at 10 mg/kg, po administered 1 hr prior to carrageenan challenge measured after 5 hr by mercury displacement technique
Rattus norvegicus [5] = assay: Anti-inflammatory activity in Albino Rattus norvegicus (rat) assessed as inhibition of carrageenan-induced paw edema at 10 mg/kg, po administered 1 hr prior to carrageenan challenge measured after 2 hr by mercury displacement technique
Rattus norvegicus [6] = assay: Anti-inflammatory activity in Albino Rattus norvegicus (rat) assessed as inhibition of carrageenan-induced paw edema at 10 mg/kg, po administered 1 hr prior to carrageenan challenge measured after 1 hr by mercury displacement technique

Row | Structure (SMILES) | inhibition in vivo at 20 mg/kg (Rattus norvegicus [1]) | inhibition in vivo at 20 mg/kg (Rattus norvegicus [2]) | inhibition in vivo at 20 mg/kg (Rattus norvegicus [3]) | inhibition in vivo at 10 mg/kg (Rattus norvegicus [4]) | inhibition in vivo at 10 mg/kg (Rattus norvegicus [5]) | inhibition in vivo at 10 mg/kg (Rattus norvegicus [6])
1 | S=C(N/N=C/c1ccccc1Cl)Nn1c(S)nnc1-c1ccncc1 | 67.3% | 62.5% | 39.1% | – | – | –
2 | O=[N+]([O-])c1ccc(/C=N/NC(=S)Nn2c(S)nnc2-c2ccncc2)cc1 | 41.5% | 34.5% | 14.3% | – | – | –
3 | COc1cc(/C=N/NC(=S)Nn2c(S)nnc2-c2ccncc2)cc(OC)c1OC | 61.4% | 52.9% | 36.2% | – | – | –
4 | COc1ccc(/C=N/NC(=S)Nn2c(S)nnc2-c2ccncc2)cc1O | 48.4% | 44.4% | 28% | – | – | –
5 | S=C(N/N=C/c1ccc(Cl)cc1)Nn1c(S)nnc1-c1ccncc1 | 76.9% | 69.6% | 45.5% | – | – | –
6 | COc1ccc2c(c1)c(CC(=O)O)c(C)n2C(=O)c1ccc(Cl)cc1 [INDOMETHACIN] | – | – | – | 84% | 73% | 52%
